Measured values from publication PMC5407577, “Functional and genetic evidence that nucleoside transport is highly conserved in Leishmania species: Implications for pyrimidine-based chemotherapy” (International Journal for Parasitology: Drugs and Drug …, 2017).

Legend:
[1] = test system: L. major promastigotes WT; assay: Alamar blue drug sensitivity assay, L. major WT; type: cell-based, Leishmania major; conditions: Leishmania major, 72 h, WT promastigotes, 72 h + 48 h with dye; n ≥ 4; read-out: EC50
Protocol: (§1) Sensitivity assays of Leishmania strains to various drugs using the viability dye resazurin (Alamar Blue) (Sigma-Aldrich) were performed using a protocol adapted from [Räz et al. (1997)], as described ([Al-Salabi et al., 2003], [Gould et al., 2008]). Pentamidine and diminazene were used as non-nucleoside controls and were obtained from Sigma-Aldrich, as were many purines, pyrimidines, and analogs, with the exceptions of 2-thiouridine and 4-thiouridine (TriLink BioTechnologies, San Diego, CA); 5′-deoxyuridine, and 2′-3′-dideoxyuridine (Carbosynth, Compton, UK); 5-fluoro-2′-deoxyuridine (Fluka); and 2-thiouracil (ICN Biomedicals, Cambridge, UK). A preliminary promastigote culture was diluted to a density of 2 × 10^6 cells/ml, of which 100 μl was added to wells of 96-well plates pre-loaded with 100 μl of doubling dilutions of test compounds, resulting in a final density of 1 × 10^6 cells/ml; the dilutions were over 2 rows of the plate (23 concentrations), with the last well containing only medium and serving as the no-drug control. The plates were incubated at 25 °C for 72 h before adding the Alamar Blue dye (20 μl of 12.5 mg resazurin sodium salt (Sigma) in 100 ml phosphate buffered saline (PBS; pH 7.4)). Since Leishmania parasites metabolize the Alamar Blue dye slower than trypanosomes ([Gould et al., 2008]), the cells were incubated with the dye for a further period of 48 h before measuring the fluorescence, using a FLUOstar Optima fluorimeter (BMG Labtech) at wavelengths of 544 nm for excitation and 620 nm for emission. […] Each experiment was performed independently at least 4 times; statistical significance was determined using Student's unpaired t-test.

[2] = test system: Lmex5F2′dURes; assay: microbe, parasite or virus in culture; type: cell-based, Leishmania mexicana
Protocol: as §1

[3] = test system: Lmex5FURes; assay: microbe, parasite or virus in culture; type: cell-based, Leishmania mexicana
Protocol: as §1

[4] = test system: Lmaj5FURes; assay: microbe, parasite or virus in culture; type: cell-based, Leishmania major
Protocol: as §1

[5] = test system: Lmaj5F2′dURes; assay: microbe, parasite or virus in culture; type: cell-based, Leishmania major
Protocol: as §1

[6] = test system: Lmex5FURes; type: cell-based, Leishmania mexicana; conditions: 0.5 μM radiolabel
How it was run: (§2)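 Mid-to-late log-phase parasites were washed and held at 10^8 cells ml^−1 in HEPES/bicarbonate buffer with glucose, pH 7.3, then incubated at ambient temperature with radiolabelled permeant, with or without unlabelled substrate or inhibitors. Uptake was stopped with ice-cold excess unlabelled permeant and oil centrifugation, then counted by scintillation; saturation, inhibition and time-course data fitted by regression, in triplicate.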

[7] = target: LmexNT1; type: cell-based, Leishmania mexicana; conditions: inhibition of 0.25 μM [3H]-uridine uptake in the presence of 1 mM uracil
How it was run: as §2

[8] = target: LmexUU1; type: cell-based, Leishmania mexicana; conditions: inhibition of [3H]-uracil uptake, 4 min
How it was run: as §2

[9] = test system: L. mexicana promastigotes WT; assay: Alamar blue drug sensitivity assay, L. mexicana WT; type: cell-based, Leishmania mexicana; conditions: Leishmania mexicana, 72 h, WT promastigotes, 72 h + 48 h with dye; n ≥ 4; read-out: EC50
Protocol: as §1

[10] = test system: L. mexicana promastigotes; assay: metabolomic analysis of treated L. mexicana promastigotes; type: cell-based, Leishmania mexicana; conditions: 100 μM, 8 h
Protocol: (§3) Metabolomics analysis of the Leishmania promastigotes was undertaken in triplicate, exactly as described ([Ali et al., 2013a]). Briefly, cells were grown to log phase stage, resuspended at 2 × 10^6 cells/ml in 50 ml HOMEM/FBS and incubated 8 h with 100 μM of test compound (standard conditions) before transfer to a 50-ml centrifuge tube for instantaneous cooling (dry ice/ethanol bath, 4 °C) and centrifugation (2500 rpm, 10 min, 4 °C). The pellet was lysed with 200 μl of chloroform/methanol/water (1:3:1 v/v/v) containing mass spectrometry standards, and vigorous mixing (1 h, 4 °C); cell debris was removed by centrifugation and the metabolite extracts were stored in HPLC vials at −80 °C. Control samples were prepared in parallel and included untreated cells, unused growth medium, test compound solution and extraction solvent blanks. The analysis used a hydrophilic interaction liquid chromatography (HILIC-LC) fitted with a zwitterionic ZIC-pHILIC column (Merck Sequant), coupled to high resolution mass spectrometry (MS) using a Thermo Q-Exactive, and metabolomic data outputs were analyzed using the IDEOM application (http://mzmatch.sourceforge.net/ideom.php) with default parameters ([Creek et al., 2012]) exactly as described ([Ali et al., 2013a]). The lower limit of detection was set to 500 intensity units for all reported metabolites, in order to prevent spurious identification of low level signals.
(§4) The mechanism of action of the fluorinated pyrimidines was investigated using a metabolomics approach, where promastigotes of L. mexicana and L. major were incubated for 8 h with 100 μM of either 5-FU, 5F-2′dUrd or 5F-Urd prior to metabolite extraction and mass spectrometric analysis as described ([Ali et al., 2013a], [Alkhaldi et al., 2015]). These conditions were chosen to allow for significant metabolite accumulation while not affecting cell viability or growth rate, which could broadly affect metabolite levels.

[11] = test system: L. major promastigotes; assay: metabolomic analysis of treated L. major promastigotes; type: cell-based, Leishmania major; conditions: 100 μM, 8 h
Protocol: as §3, §4

[12] = n = 3, SEM, untreated: not detected (<500)

Q: `O=c1[nH]cc(F)c(=O)[nH]1` [5-FU, 5-Fluorouracil] was tested. Which EC50 [1] did it give?
A: 8.5 ± 0.6 µM

Q: What about the EC50 ([2]; Leishmania mexicana) of the same compound?
A: 1770 ± 301 µM

Q: And the “RF (Resistance Factor = IC50 (resistant clone)/IC50 (WT))” value (“RF” for short) ([2]; Lmex5F2′dURes vs L. mexicana WT)?
A: 190

Q: And the EC50 ([3]; Leishmania mexicana)?
A: 1370 ± 123 µM

Q: What about the “RF” value ([3]; Lmex5FURes vs L. mexicana WT) of the same compound?
A: 147

Q: And the EC50 ([4]; Leishmania major)?
A: 150 ± 5 µM

Q: And the “RF” value ([4]; Lmaj5FURes vs L. major WT)?
A: 17

Q: And the EC50 ([5]; Leishmania major)?
A: 12 ± 1 µM

Q: What about the “RF” value ([5]; Lmaj5F2′dURes vs L. major WT) of the same compound?
A: 1.3

Q: And the “uptake of radiolabel, lower than in WT control cells” value [6]?
A: 94.5%

Q: And the Ki [7]?
A: > 5000 µM

Q: And the Ki [8]?
A: 56.3 ± 6.4 µM

Q: What about the EC50 [9] of the same compound?
A: 9.3 ± 0.6 µM

Q: And the dCMP peak intensity [10, 12]?
A: 5636 ± 3288 arbitrary units

Q: And the dUrd peak intensity ([10]; untreated: 304 ± 155)?
A: 4166 ± 1560 arbitrary units

Q: And the dADP peak intensity ([10]; untreated: 1458)?
A: 8948 ± 461^∗∗ arbitrary units

Q: And the dAdo peak intensity ([10]; untreated: 2585 ± 811)?
A: 6476 ± 2403 arbitrary units

Q: And the dAMP peak intensity ([10]; untreated: 10660 ± 2897)?
A: 20366 ± 5358 arbitrary units

Q: What about the dCDP peak intensity ([10]; untreated: not detected) of the same compound?
A: 4803 ± 433^∗∗ arbitrary units

Q: And the dCTP peak intensity ([10]; untreated: not detected)?
A: 2913 ± 1346 arbitrary units

Q: And the dCMP peak intensity [11, 12]?
A: 5130 arbitrary units

Q: What about the dUrd peak intensity ([11]; untreated: 712 ± 105) of the same compound?
A: 5177 ± 1445 arbitrary units

Q: What about the dCTP peak intensity ([11]; untreated: 995 ± 109) of the same compound?
A: 4541 ± 565 arbitrary units

Q: What about the dAdo peak intensity ([11]; untreated: 2992 ± 173) of the same compound?
A: 6996 ± 2423 arbitrary units

Q: What about the dAMP peak intensity ([11]; untreated: 6192 ± 910) of the same compound?
A: 19379 ± 3774 arbitrary units

Q: And the dADP peak intensity ([11]; untreated: not detected)?
A: not detected

Q: And the dCDP peak intensity ([11]; untreated: not detected)?
A: 6197 ± 1588 arbitrary units
